Assays:
[1] = system: Th clones 1D12, 5E9, 3F6, 1G1; assay: Helper assay: Th clones co-cultured with splenic B cells from SNF1 mice in presence of peptide; format: cell-based, mouse; settings: responder Th clones 5E9 and 3F6
Description: IgG autoantibodies to ssDNA, dsDNA, histones, and nucleosomes were quantitated using an ELISA as described previously (Mohan, et al., 1995, J. Immunol., 154:1470-1480; Mohan, et al., 1993, J. Exp. Med. 177:1367-1381; Burlingame, et al., 1993, J. Clin. Invest. 91:1687-1696; Losman, et al., 1992, J. Immunol., 148:1561-1569). Sera were diluted 1:100 and heat-inactivated before use. Serum from normal BALB/c mice were used as negative control. Anti-DNA mAbs 564 and 205 were used to generate standard curves (Adams, et al., 1991, Proc. Natl. Acad. Sci. USA 88:11281-11275; Mohan, et al., 1995, J. Immunol., 154:1470-1480; Mohan, et al., 1993, J. Exp. Med. 177:1367-1381; Sainis and Datta, 1988, J. Immunol. 140:2215-2224). For IgG autoantibodies to ssDNA, histones and nucleosomes, 1 unit per milliliter was considered to be equivalent to the activity of one microgram per milliliter of mAb 564, which recognizes all three autoantigens (Mohan, et al., 1995, J. Immunol., 154:1470-1480; Mohan, et al., 1993, J. Exp. Med. 177:1367-1381), and for IgG anti-dsDNA, 1 unit per milliliter was equivalent to the binding of 0.6 micrograms per milliliter of the mAb 205.
After seven days of co-culture, the supernatants were assayed for IgG antibodies to the autoantigens (ds-DNA, ss-DNA, nucleosome, and histone) by ELISA. […]

[2] = system: SNF1 mice; assay: Acceleration of SLE-associated nephritis by immunization with eluted peptides in adjuvant; format: in vivo, mouse
Text: The animals received three more injections at two weeks interval with 50 micrograms of either an eluted peptide or the control peptide absorbed on alum (Pierce Chemical Co., Rockford, Ill.).

[3] = system: pathogenic Th clones from SNF1 mice; assay: Stimulation of nucleosome-specific pathogenic Th clones from SNF1 mice by eluted/synthetic peptides; format: cell-based, mouse; settings: A20 or splenic B+Mφ as APC
Description: Fresh splenic, CD4^+ T cells (5×10^5/well) were co-cultured in triplicate wells at an initial concentration of 5×10^5 cells per well, with 10^6 cells per well of either irradiated B+Mφ or mitomycin-C treated A20 APC. Varying concentrations of either control or test peptides were added and the cultures were adjusted to 200 microliters final volume of HL-1 serum-free medium (Hycor Biomedical Inc., Irvine, Calif.) cultures were incubated for 96 hours in flat bottom 96-well plates, and at 18 hours prior to harvesting the cells, 1 microcurie of 3H-Thymidine was added to each well. The incorporated radioactivity was measured by scintillation counting. The Stimulation Index (SI) was calculated by dividing the mean counts per minute (cpm) incorporated in co-cultures of T cells and APC with test peptide by the mean cpm incorporated in control peptide co-cultures. In the case of cytokine assays, experiments were carried out as described for the proliferation assays except that the culture supernatants were removed from duplicate co-culture wells after 24-46 hours of incubation and cytokine assays were performed.
An aliquot of 50 microliters from each HPLC fraction was assayed for stimulating ability as described above. Four characterized Th clones were used as indicators of cytokine secretion (IL-2 and/or IL-4) in response to the peptide fractions, using A20 or splenic B+Mψ as APCs (Adams, et al., 1991, Proc. Natl. Acad. Sci. USA 88:11271-11275; Shi, et al., 1998, J. Exp. Med. 187:367-378). […] Only two out of one hundred fractions tested were able to stimulate Th cell clones. […] The latter was further separated as described, and tested for active fractions of HPLC purified peptides.. Three naturally processed and presented, stimulatory epitopes were identified using these procedures. The sequences of the peptides are as follows: SQKEEEEGAQREKE (EP-1, SEQ ID NO: 23); DWMEEEHGAQREKE (EP-2, SEQ ID NO: 24); and […] (EP-3, or H522-42, SEQ ID NO: 25). The first two peptides were homologous to sequences in a transcription factor, BRN-3, which is identical in chicken, mice and humans (GenBank). […] EP-1 is highly homologous to EP-2, but it also matched a sequence in cytomegalovirus envelope protein at aa position 57-70. Most likely these peptides are derived from some transcription factor in the chromatin that was incubated with the APC. The third sequence (EP-3) was derived from histone H5 (aa position 22-42) in chicken nucleosome, which is homologous to histone H1 sequence of mice and humans at amino acid position 22-42 ([…], SEQ ID NO:26). […] Therefore, the mouse H122-42 is the autoantigenic peptide in mice and is also referred to herein as EP-3. Nested sequences and unrelated sequences that were obtained in the active fractions from the eluates were also synthesized and re-tested.

STDHPKYSDMIVAAIQAEKNR (Histone fragment) [H122-42]
augmentation of autoantibody-inducing help [1]: almost as much as the whole nucleosome | development of severe nephritis ([2]; by 28 weeks of age): all the EP-3 immunized mice developed severe nephritis | onset/rate of disease relative to control group (CFA alone or OVA peptide in CFA) ([2]; immunization from 12 weeks): developed severe nephritis earlier | time to severe nephritis in some immunized animals ([2]; just after the first booster immunization): 2-3 weeks | mice succumbed to severe lupus nephritis ([2]; within four weeks of the first injection, peptide in CFA): Eighty percent | stimulation of pathogenic Th clones [3]: equivalent to the chicken H52242 peptide | stimulation of pathogenic Th clones ([3]; listed as EP-3): stimulatory

— US6468537B1, “Localization of major peptide autoepitopes for nucleosome specific T cells of systemic lupus erythematosus” (The Board of Trustees of Northwestern University, priority 1999, dated 2002)
